Measured values as given in patent US7235375B2, “Organic anion transport proteins” (Bristol-Myers Squibb Company, priority 1999, dated 2007).
Like-named read-outs stand apart in the source and are kept apart here.

Target: T1, OATP2 (Homo sapiens, UniProt Q9Y6L6, N130D)
T1 sequence (Q9Y6L6 1-691 N130D): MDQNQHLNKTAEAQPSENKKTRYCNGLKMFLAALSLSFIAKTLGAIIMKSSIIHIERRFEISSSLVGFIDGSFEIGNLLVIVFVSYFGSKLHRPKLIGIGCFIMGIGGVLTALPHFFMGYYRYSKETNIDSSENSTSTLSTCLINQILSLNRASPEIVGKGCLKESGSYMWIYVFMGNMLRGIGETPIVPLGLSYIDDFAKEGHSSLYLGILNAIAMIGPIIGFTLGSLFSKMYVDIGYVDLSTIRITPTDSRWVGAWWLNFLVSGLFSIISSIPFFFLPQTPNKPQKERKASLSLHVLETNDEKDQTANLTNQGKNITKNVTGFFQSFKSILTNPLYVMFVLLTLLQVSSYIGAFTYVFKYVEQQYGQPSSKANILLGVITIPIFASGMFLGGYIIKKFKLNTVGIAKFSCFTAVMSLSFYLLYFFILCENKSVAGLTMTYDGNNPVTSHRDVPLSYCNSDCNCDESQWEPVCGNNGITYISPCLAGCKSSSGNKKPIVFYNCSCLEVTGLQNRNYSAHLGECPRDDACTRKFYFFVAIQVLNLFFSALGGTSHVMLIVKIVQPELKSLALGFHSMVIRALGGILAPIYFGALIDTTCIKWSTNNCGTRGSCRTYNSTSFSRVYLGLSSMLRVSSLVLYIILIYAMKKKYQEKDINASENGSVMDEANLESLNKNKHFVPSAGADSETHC
Settings: 293EBNA (HEK293 derivative) cells transfected with pCEP-OATP2 or empty vector (MOCK), uptake for 5 minutes, absence and presence of excess unlabeled substrate, FIG. 2
Procedure: An assay for the measurement of OATP activity is performed as follows: HEK293 cells are plated in Dulbeccos Modified Eagles Medium (DMEM) plus 10% fetal bovine serum plus penicillin and streptomycin, in poly-d-lysine coated dishes and co-transfected with OATP transporter expression plasmids using Lipofectamine Plus (Life Technologies, Inc.). The cells and media are assayed for substrate transport 24 hours later. Alternatively, cell lines engineered to stably express OATPs could be plated and assayed directly without transfection. To measure transport, media is removed and monolayers are assayed in triplicate by washing once in serum-free DMEM and adding the same medium containing [^3H]-substrate alone or in the presence of various concentrations of unlabeled test compounds. […] The transport activity is expressed as moles of substrate transported into cells/mg of cell protein/minute. […]
293EBNA cells (Invitrogen, Inc.), an HEK293 cell derivative, were transiently transfected with the OATP2 expression vector pCEP-OATP2, or the pCEP4 vector alone (MOCK) and the transport of [^3H]-labeled substrates was determined 24 hours later. […] The uptake of radiolabeled substrate for 5 minutes into cells transfected with pCEP-OATP2 or empty vector (MOCK) was determined in the absence (solid bars) and presence (open bars) of excess unlabeled substrate.

NC(Cc1cc(I)c(Oc2cc(I)c(O)c(I)c2)c(I)c1)C(=O)O (centres unmarked) [thyroid hormone (T4)]
transport (specific uptake of radiolabeled substrate) by OATP2: specific uptake | transport (specific uptake of radiolabeled substrate) by OATP2 (listed as thyroid hormone (T)): transports
